Experimental data taken from US10179355B2, “Bioremediation enhancing agents and methods of use” (JRW BIOREMEDIATION, LLC, priority 2007, dated 2019).

Experiments:
Format in all cases: cell-based, Dehalococcoides and Dehalobacter spp.
[1] = system: dechlorinating bacteria known to convert PCE to ethene; experiment: Set D: Lactic Acid Solids, PCE dechlorination microcosms (kinetics, Relative Rate)
Source text: Certain contaminated materials (or sites) may contain indigenous microbial communities that are sufficient for complete bioremediation of contaminants. For such sites, there is no need to add microbes unless the indigenous microbes are genetically deficient in achieving the desired clean-up goals. For those sites that are microbiologically limited, microorganisms may be added to the contaminated materials (or sites). In one embodiment, the inoculum may be a mixed culture of halo-respiring bacteria that have been enriched to reach an optimal cell density. These mixed cultures of halo-respiring bacteria may be typically obtained from sediment samples from rivers, streams or any waterways. More specifically, the inoculum used in the Examples was originated from a Sangamon River sediment sample (Lodge Park, Piatt County, Ill.) See, e.g., Brennan, R. A., Sanford, R. A. and […]. (2006). “Biodegradation of Tetrachloroethene by Chitin Fermentation Products in a Continuous Flow Column System.” Journal of Environ. Engr., June 665-673. […] Brennan, R. A., and Sanford, R. A. (2002). “Continuous steady-state method using Tenax for delivering tetrachloroethene to chlororespiring bacteria.” Appl. Environ. […] Using 16S rRNA gene-specific primers, both Dehalococcoides and Dehalobacter spp. were detected. […] For purpose of this disclosure, each bottle may be started with a certain amount of PCE. At subsequent times each bottle may be sampled for the degradation daughter products of PCE, namely trichloroethene (TCE), cis-dichloroethene (DCE), vinyl chloride (VC) and ethene, etc. […] The rate of degradation may be determined by calculating the number of pmoles of chloride ions removed from PCE and subsequently from the amounts of the daughter products generated. The calculation may be performed as follows: […] Next, the dechlorination rate may be determined for each bottle at each time by dividing the Chloride generated by the time (days). […] This ratio is called Relative Rate and is dimensionless. As shown in the Examples, a paired t-test has been conducted to calculate the probability that the Relative Rate of one group (i.e. with Nutrient) is greater than the other group (i.e. without Nutrient). The null hypothesis is that the underlying means of the two paired groups are equal. The Probability that one group has higher Relative Rates than the other group is shown in various tables in the Examples. […] Lactic Acid Solids is a mixture of lactic acid, oligimers of lactic acid and residual sugars. […] In addition, this set was used to characterize if and to what extent the Lactic Acid Solids was an efficacious electron donor for anaerobic bioremediation of contaminants in water.

[2] = system: dechlorinating bacteria known to convert PCE to ethene; experiment: Set C: Efficiency by Volatile Fatty Acid Analysis
Source text: (§1) Sets B, C, D, E, and G further contain figures and tables showing results of the characterization of the Efficiency and the Relative Efficiency of electron donor usage. Efficiency may be defined as the percent of electron donor utilized for dechlorination, and may be calculated by dividing the pmoles of Chloride ion generated by the pmoles of electron donor consumed as measured by either Volatile Fatty Acid (VFA) analysis (Sets B, C, and G) or Chemical Oxygen Demand (COD) analysis (Set D and E). The Relative Efficiency of the electron donor utilization may be defined as the Efficiency of the Electron Donor divided by the Efficiency of the Lactate Control.
The method used to calculate the consumption of the electron donor measured the propionate, acetate and formate levels to calculate the consumption of electron donor over time. The lactate and propionate fermented very rapidly resulting in acetate and formate as the only measurable VFAs.

[3] = system: dechlorinating bacteria known to convert PCE to ethene; experiment: Set B: Efficiency of electron donor utilization by COD analysis
Source text: as §1
Table 10 and FIG. 9 show the efficiency of electron donor (e^−) utilization as measured by COD analysis. The COD analysis calculates the utilization of electron donor by measuring the starting COD and the final COD taking the difference and converting mg/L to pmoles of electrons. The pmoles of electrons used for dechlorination was determined from the calculated Chloride produced leading to an Efficiency and Relative Efficiency of electron donor utilization as compared to lactate.

CC(O)C(=O)[O-].[Na+] (stereo not drawn) [Lactate Control, sodium lactate]
Cl^− Rate ± s.d. ([1]; 0 days): 0.00 ± 0.00 µmol | Cl^− ± s.d. ([1]; 0 days): 0.00 ± 0.00 µmol | DCE ± s.d. ([1]; 0 days): 0.00 ± 0.00 µmol | Ethene ± s.d. ([1]; 0 days): 0.00 ± 0.00 µmol | PCE ± s.d. ([1]; 0 days): 19.54 ± 0.00 µmol | TCE ± s.d. ([1]; 0 days): 0.00 ± 0.00 µmol | VC ± s.d. ([1]; 0 days): 0.00 ± 0.00 µmol | Cl^− Rate ± s.d. ([1]; 22 days): 2.64 ± 0.00 µmol | Cl^− ± s.d. ([1]; 22 days): 58.02 ± 0.10 µmol | DCE ± s.d. ([1]; 22 days): 10.02 ± 0.06 µmol | Ethene ± s.d. ([1]; 22 days): 0.25 ± 0.07 µmol | PCE ± s.d. ([1]; 22 days): 0.00 ± 0.00 µmol | TCE ± s.d. ([1]; 22 days): 0.00 ± 0.00 µmol | VC ± s.d. ([1]; 22 days): 0.10 ± 0.03 µmol | Cl^− Rate ± s.d. ([1]; 36 days): 1.18 ± 0.01 µmol | Cl^− ± s.d. ([1]; 36 days): 63.68 ± 0.46 µmol | DCE ± s.d. ([1]; 36 days): 7.18 ± 0.26 µmol | Ethene ± s.d. ([1]; 36 days): 0.23 ± 0.19 µmol | PCE ± s.d. ([1]; 36 days): 0.00 ± 0.00 µmol | TCE ± s.d. ([1]; 36 days): 0.01 ± 0.02 µmol | VC ± s.d. ([1]; 36 days): 0.08 ± 0.01 µmol | Cl^− Rate ± s.d. ([1]; 50 days): 1.29 ± 0.06 µmol | Cl^− ± s.d. ([1]; 50 days): 64.63 ± 2.77 µmol | DCE ± s.d. ([1]; 50 days): 4.98 ± 0.67 µmol | Ethene ± s.d. ([1]; 50 days): 0.20 ± 0.09 µmol | PCE ± s.d. ([1]; 50 days): 0.00 ± 0.00 µmol | TCE ± s.d. ([1]; 50 days): 0.00 ± 0.00 µmol | VC ± s.d. ([1]; 50 days): 3.57 ± 1.88 µmol | Estimated % Efficiency [2]: 2.55% | Relative Efficiency ([2]; relative to Lactate Control): 1.00 | % of e^− used for dechlor. [3]: 13.1% | Chloride ([3]; Efficiency by COD analysis): 77.16 pmol | Relative Efficiency ([3]; relative to Lactate Control): 100%
